The values below are quoted from earlier work in PubChem BioAssay AID1259409 (Chemical Carcinogenesis Research Information System (CCRIS), 2018).

This series has as its system rodent chemically induced tumor inhibition, incidence and multiplicity. The series is described as follows: CCRIS tumor inhibitor studies.

In the case of `Oc1cc(O)c2c(c1)O[C@H](c1ccc(O)c(O)c1)[C@@H](O)C2`, the “tumour outcome (control, treated, inhibition, significance)” value runs as follows: (Carcinogen: 1,2-DIMETHYLHYDRAZINE [540-73-6], Species: RAT, Strain/Sex: WISTAR, Target Tissue: Type of Lesion: COLON, Dose [Carcinogen]: 20 MG/KG) 81.3%, 58.8%, 27.7%, p<0.05; (Carcinogen: 7,12-DIMETHYLBENZ[A]ANTHRACENE, 57-97-6, Dose [Inhibitor]: 0, 0.2 ML OF A 1% SOLUTION 1/D FOR 2 WK APPLIED 5 MIN POST EACH CARCINOGEN DOSE THEN 1/D FOR 4 WK DURING PROMOTION STAGE, Route [Inhibitor]: DERMAL, Species: MOUSE, Strain/Sex: SWISS/MALE, Target Tissue: Type of Lesion: SKIN: PAPILLOMA, Dose [Carcinogen]: 0.2 ML OF A 0.24% SOLUTION IN DMSO 1/D FOR 2 WK, Promoter: CROTON OIL, 8001-28-3) 23/23 (100%), 16/23 (70%), 30%, not calculated; (Carcinogen: 7,12-DIMETHYLBENZ[A]ANTHRACENE, 57-97-6, Dose [Inhibitor]: 0, 0.2 ML OF A 1% SOLUTION 1/D FOR 2 WK APPLIED 5 MIN PRIOR TO EACH CARCINOGEN DOSE (STUDY DURATION: 20 WK), Route [Inhibitor]: DERMAL, Species: MOUSE, Strain/Sex: SWISS/MALE, Target Tissue: Type of Lesion: SKIN: PAPILLOMA, Dose [Carcinogen]: 0.2 ML OF A 0.24% SOLUTION IN DMSO 1/D FOR 2 WK, Promoter: CROTON OIL, 8001-28-3) 23/23 (100%), 20/23 (87%), 13%, not calculated; (Carcinogen: 7,12-DIMETHYLBENZ[A]ANTHRACENE, 57-97-6, Dose [Inhibitor]: 0, 2.5 MG/D IN DRINKING WATER FOR DURATION OF STUDY BEGINNING 2 WK PRIOR TO CARCINOGEN DOSE (STUDY DURATION: 6 MO), Route [Inhibitor]: ORAL, Species: RAT, Strain/Sex: WISTAR/FEMALE, Target Tissue: Type of Lesion: MAMMARY GLAND: TUMOR, Dose [Carcinogen]: 10 MG IN PEANUT OIL INJECTED INTO SUBCUTANEOUS POUCH CREATED IN THE 5TH AND 6TH MAMMARY GLAND REGION, Promoter: NONE USED) 20/20 (100%), 4/20 (20%), 80%, p<0.001; (Carcinogen: 7,12-DIMETHYLBENZ[A]ANTHRACENE, 57-97-6, Dose [Inhibitor]: 0, 4 MG 2/WK FOR 20 WK BEGINNING 2 WK POST CARCINOGEN DOSE (STUDY DURATION: 22 WK), Route [Inhibitor]: DERMAL, Species: MOUSE, Strain/Sex: CF-1/FEMALE, Target Tissue: Type of Lesion: SKIN: PAPILLOMA, Dose [Carcinogen]: 25.6 UG ONCE, Promoter: 12-O-TETRADECANOYLPHORBOL-13-ACETATE, 16561-29-8) 97%, 97%, 0%, not significant; (Carcinogen: 7,12-DIMETHYLBENZ[A]ANTHRACENE, 57-97-6, Dose [Inhibitor]: 0, 12 MG 2/WK FOR 20 WK BEGINNING 2 WK POST CARCINOGEN DOSE (STUDY DURATION: 22 WK), Route [Inhibitor]: DERMAL, Species: MOUSE, Strain/Sex: CF-1/FEMALE, Target Tissue: Type of Lesion: SKIN: PAPILLOMA, Dose [Carcinogen]: 25.6 UG ONCE, Promoter: 12-O-TETRADECANOYLPHORBOL-13-ACETATE, 16561-29-8) 97%, 91%, 6%, not significant. Further, the “tumour outcome (control, treated, inhibition, significance)” value reads like this: (Carcinogen: BENZO[A]PYRENE, 50-32-8, Dose [Inhibitor]: 0, 2.5 MG/D IN DRINKING WATER FOR 8 WK BEGINNING 2 WK PRIOR TO CARCINOGEN TREATMENT (STUDY DURATION: 20 WK), Route [Inhibitor]: ORAL, Species: MOUSE, Strain/Sex: SWISS/FEMALE, Target Tissue: Type of Lesion: FORESTOMACH: TUMOR, Dose [Carcinogen]: 1 MG IN 0.1 ML PEANUT OIL 2/WK FOR 4 WK, Promoter: NONE USED) 20/20 (100%), 16/20 (80%), 20%, not significant; (Carcinogen: METHYL(ACETOXYMETHYL)NITROSAMINE, 56856-83-8, Dose [Inhibitor]: 0, 1.7 MG/D IN DRINKING WATER FOR DURATION OF STUDY BEGINNING 2 WK PRIOR TO CARCINOGEN TREATMENT (STUDY DURATION: 13 MO), Route [Inhibitor]: ORAL, Species: HAMSTER, Strain/Sex: SYRIAN/FEMALE, Target Tissue: Type of Lesion: ORAL: CAVITY, Dose [Carcinogen]: 2 MG/KG BW APPLIED TO RIGHT CHEEK POUCH 2/MO FOR 6 MO, Promoter: NONE USED) 14/15 (93%), 4/15 (27%), 71%, p<0.001; (Carcinogen: N-ETHYL-N-HYDROXYETHYLNITROSAMINE, 13147-25-6, Dose [Inhibitor]: 0, 0.8% IN DIET FOR 36 WK BEGINNING 1 WK POST CARCINOGEN TREATMENT (STUDY DURATION: 40 WK), Route [Inhibitor]: ORAL, Species: RAT, Strain/Sex: WISTAR/MALE, Target Tissue: Type of Lesion: KIDNEY: MICROADENOMA, Dose [Carcinogen]: 0.1% IN DRINKING WATER FOR 3 WK, Promoter: NONE USED) 11/17 (65%), 12/17 (71%), -9%, not significant; (Carcinogen: N-ETHYL-N-HYDROXYETHYLNITROSAMINE, 13147-25-6, Dose [Inhibitor]: 0, 0.8% IN DIET FOR 36 WK BEGINNING 1 WK POST CARCINOGEN TREATMENT (STUDY DURATION: 40 WK), Route [Inhibitor]: ORAL, Species: RAT, Strain/Sex: WISTAR/MALE, Target Tissue: Type of Lesion: KIDNEY: RENAL CELL TUMOR, Dose [Carcinogen]: 0.1% IN DRINKING WATER FOR 3 WK, Promoter: NONE USED) 14/17 (82%), 11/17 (65%), 21%, not significant; (Carcinogen: N-ETHYL-N-HYDROXYETHYLNITROSAMINE, 13147-25-6, Dose [Inhibitor]: 0, 0.8% IN DIET FOR 36 WK BEGINNING 1 WK POST CARCINOGEN TREATMENT (STUDY DURATION: 40 WK), Route [Inhibitor]: ORAL, Species: RAT, Strain/Sex: WISTAR/MALE, Target Tissue: Type of Lesion: LIVER: HEPATOCELLULAR ADENOMA, Dose [Carcinogen]: 0.1% IN DRINKING WATER FOR 3 WK, Promoter: NONE USED) 10/17 (59%), 11/17 (65%), -10%, not significant; (Carcinogen: N-ETHYL-N-HYDROXYETHYLNITROSAMINE, 13147-25-6, Dose [Inhibitor]: 0, 0.8% IN DIET FOR 36 WK BEGINNING 1 WK POST CARCINOGEN TREATMENT (STUDY DURATION: 40 WK), Route [Inhibitor]: ORAL, Species: RAT, Strain/Sex: WISTAR/MALE, Target Tissue: Type of Lesion: LIVER: HEPATOCELLULAR CARCINOMA, Dose [Carcinogen]: 0.1% IN DRINKING WATER FOR 3 WK, Promoter: NONE USED) 7/17 (41%), 3/17 (18%), 56%, not significant. Also, the “tumour outcome (control, treated, inhibition, significance)” value by setting is: (Carcinogen: N-NITROSOBIS(2-HYDROXYPROPYL)AMINE, 53609-64-6, Dose [Inhibitor]: 0, 1.5% IN DIET FOR 30 WK BEGINNING POST CARCINOGEN TREATMENT (STUDY DURATION: 35 WK), Route [Inhibitor]: ORAL, Species: HAMSTER, Strain/Sex: SYRIAN/MALE, Target Tissue: Type of Lesion: PANCREAS: ADENOCARCINOMA, Dose [Carcinogen]: 500 MG/KG 1/WK FOR 5 WK, Promoter: NONE USED) 8/17 (47%), 5/19 (26%), 45%, not significant; (Carcinogen: NONE USED, Dose [Inhibitor]: 0, 2.5 MG/D IN DRINKING WATER FROM 8 MO OF AGE (STUDY DURATION: 15 MO), Route [Inhibitor]: ORAL, Species: MOUSE, Strain/Sex: C3H/FEMALE, Target Tissue: Type of Lesion: MAMMARY GLAND: TUMOR, Promoter: NONE USED) 12/20 (60%), 8/20 (40%), 33%, not calculated.

For `N[C@@H](CSSC[C@H](N)C(=O)O)C(=O)O`, the “tumour outcome (control, treated, inhibition, significance)” value (Carcinogen: 4-DIMETHYLAMINOAZOBENZENE, 60-11-7, Dose [Inhibitor]: 0.5% OF DIET DAILY STARTING SIMULTANEOUSLY WITH CARCINOGEN TREATMENT AND CONTINUING THROUGH THE END OF THE STUDY (STUDY, Route [Inhibitor]: ORAL, Species: RAT, Strain/Sex: OSBORNE-MENDEL/MALE, Target Tissue: Type of Lesion: LIVER: HEPATOMA, ADENOCARCINOMA, Dose [Carcinogen]: 0.06% OF DIET DAILY THROUGH THE END OF THE STUDY, Promoter: NONE USED) was 48/80 (60%), 84/87 (97%), -62%, not calculated.
